# Results published in PubChem BioAssay (NCI).
# “And” between values parts separate entries of the source, which are not always exact repeats. Identical values can stand only once.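 In this assay, cells in 96-well plates receive the compound at five concentrations for 48 hours. Endpoints are linearly interpolated between the surrounding concentrations. Abbreviation: GI50, concentration required for 50% inhibition of growth. The concentration for full growth arrest is given as TGI.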
# Assays:
# Assay in all cases: NCI-60 cell line screen, 48 h
# [1] = system: NCI-H460 lung
# [2] = system: SK-MEL-5 melanoma
# [3] = system: CCRF-CEM leukemia
# [4] = system: SF-539 CNS
# [5] = system: PC-3 prostate
# [6] = system: NCI-H226 lung
# [7] = system: RPMI-8226 leukemia
# [8] = system: BT-549 breast
# [9] = system: UACC-62 melanoma
# [10] = system: SK-OV-3 ovarian
SMILES,GI50 [1],TGI [1],GI50 [2],TGI [2],GI50 [3],TGI [3],GI50 [4],TGI [4],GI50 [5],TGI [5],GI50 [6],TGI [6],GI50 [7],TGI [7],GI50 [8],TGI [8],GI50 [9],TGI [9],GI50 [10],TGI [10]
COCCNc1cc(NC(=O)N2CCCc3cc(CN4CCN(C)CC4=O)c(C=O)nc32)ncc1C#N,> 50 µM,> 50 µM,> 50 µM,> 50 µM,> 50 µM,> 50 µM,> 50 µM,> 50 µM,> 50 µM,> 50 µM,> 50 µM,> 50 µM,42.4 µM,> 50 µM,> 50 µM,> 50 µM,> 50 µM,> 50 µM,> 50 µM,> 50 µM
c1ccc(CSc2nnc3c4ccccc4c4ccccc4c3n2)cc1,,> 100 µM,,> 100 µM,,72.5 µM,,> 100 µM,,> 100 µM,,> 100 µM,,> 100 µM,,> 100 µM,,> 100 µM,,50 µM
CN(C)CC1CCCCCC(CN(C)C)C1=O (stereo not drawn),18 µM,36.8 µM,12.2 µM,25.1 µM,1.38 µM,3.87 µM,4.16 µM,15.7 µM,8.71 µM,24.2 µM,9.98 µM,33.3 µM,3.15 µM,13.9 µM,3.46 µM,15.9 µM,8.12 µM,22.9 µM,27.9 µM,> 93.6 µM
COc1cc2c3c(n(C)c(=O)c2cc1OC)-c1cc2c(cc1/C3=C\C(N)CN)OCO2 (stereo not drawn),1.5 µM,7.58 µM,2.8 µM,8.53 µM,0.333 µM,3.63 µM,1.39 µM,4.49 µM,5.27 µM,20.5 µM,1.89 µM,> 22.4 µM,6.43 µM,26.1 µM,0.72 µM,4.52 µM,0.707 µM,3.66 µM,2.45 µM,13.1 µM
CC1(C)CC[C@]2(C(=O)N3CCOCC3)CC[C@]3(C)C(=CC[C@@H]4[C@@]5(C)C/C(=C/c6ccncc6)C(=O)C(C)(C)[C@@H]5CC[C@]43C)[C@@H]2C1,1.32 µM,4.17 µM,1.48 µM,3.01 µM,0.871 µM,> 100 µM,1.73 µM,3.7 µM,0.375 µM,46.1 µM,2.09 µM,9.22 µM,0.476 µM,3.36 µM,1.39 µM,10 µM,1.36 µM,40.9 µM,3.58 µM,> 100 µM
CCCCCCCOc1c(OC)cc(C2CC(=O)Nc3c2c(C)nn3-c2nc3ccccc3[nH]2)cc1OC (stereo not drawn),1.87 µM,3.82 µM,1.93 µM,3.78 µM,4.15 µM,> 100 µM,1.66 µM,3.11 µM,3.67 µM,> 100 µM,2.1 µM,4.56 µM,3.71 µM,> 100 µM,3.4 µM,47.5 µM,2.54 µM,7.3 µM,2.77 µM,7.55 µM
CSC1(SC2=NCCN2)SC2(NCCN2)S1,,45.4 µM,,35 µM,,26.1 µM,,56.5 µM,,34.3 µM,,56.7 µM,,13.4 µM,,54.9 µM,,32.7 µM,,42 µM
COc1cc(C(=O)/C=C/c2cccnc2Nc2ccccc2)cc(OC)c1OC,1.8 µM,3.63 µM,1.34 µM,2.64 µM,0.321 µM,1.19 µM,1.65 µM,3.12 µM,1.1 µM,3.18 µM,1.23 µM,2.58 µM,0.349 µM,2.05 µM,1.26 µM,2.54 µM,1.29 µM,2.6 µM,1.6 µM,2.94 µM
COc1ccc2c(c1)C(C)Cc1c(Cl)nc(C)nc1N2C (stereo not drawn),3.09 µM,15.4 µM,2.55 µM,11.2 µM,3.17 µM,> 100 µM,1.68 µM,6.11 µM,2.99 µM,> 100 µM,5.83 µM,40.3 µM,4.14 µM,36 µM,2.22 µM,12.3 µM,0.665 µM,36.2 µM,2.79 µM,26.7 µM
CS(=O)(=O)Nc1ccc(N=Cc2c(O)[nH]c3ccccc23)cc1,> 25 µM,> 25 µM,> 25 µM,> 25 µM,> 20 µM,> 25 µM,> 25 µM,> 25 µM,> 25 µM,> 25 µM,> 25 µM,> 25 µM,> 25 µM,> 25 µM,> 25 µM,> 25 µM,> 25 µM,> 25 µM,> 25 µM,> 25 µM
CCN1C(=O)N(CC)C2C1NN=c1s/c(=C\c3cc4ccccc4[nH]3)c(=O)n12 (stereo not drawn),0.0331 µM,14.8 µM,0.0202 µM,0.063 µM,0.0208 µM,> 100 µM,< 0.01 µM,,< 0.015 µM,> 100 µM,0.186 µM,61.6 µM,< 0.0185 µM,2.19 µM,0.0178 µM,16 µM,< 0.0111 µM,7.83 µM,0.0246 µM,17.3 µM
Nc1nc(N)c(N=O)c(OCC2CCCCC2)n1,8.93 µM,> 80.5 µM and 38.1 µM,13.7 µM,60 µM and 42 µM,8.83 µM,> 100 µM,15.6 µM,56.1 µM and 36.5 µM,3.23 µM,> 100 µM and 22.9 µM,6.65 µM,> 100 µM and 46.5 µM,9.17 µM,98.7 µM and 36.1 µM,4.8 µM,61 µM and > 84.9 µM,,42.6 µM and 40.7 µM,27.9 µM,> 80.9 µM and 74.3 µM
COc1ccc(/C=C2\CCC(CN(C)C)C2=O)cc1OC (stereo not drawn),,26.6 µM,,23.9 µM,,6.74 µM,,25 µM,,13.9 µM,,28.2 µM,,5.95 µM,,14.3 µM,,12.7 µM,,33.7 µM
